Patent US11325892B2, “Compounds and methods for treating cancer” (Mayo Foundation for Medical Education and Research, priority 2014, dated 2022)

How the values were obtained:
SCD1 = biological target: T1, SCD1 (Homo sapiens, UniProt O00767); conditions: known inhibitors; cited from earlier work
T1 sequence (O00767 1-359): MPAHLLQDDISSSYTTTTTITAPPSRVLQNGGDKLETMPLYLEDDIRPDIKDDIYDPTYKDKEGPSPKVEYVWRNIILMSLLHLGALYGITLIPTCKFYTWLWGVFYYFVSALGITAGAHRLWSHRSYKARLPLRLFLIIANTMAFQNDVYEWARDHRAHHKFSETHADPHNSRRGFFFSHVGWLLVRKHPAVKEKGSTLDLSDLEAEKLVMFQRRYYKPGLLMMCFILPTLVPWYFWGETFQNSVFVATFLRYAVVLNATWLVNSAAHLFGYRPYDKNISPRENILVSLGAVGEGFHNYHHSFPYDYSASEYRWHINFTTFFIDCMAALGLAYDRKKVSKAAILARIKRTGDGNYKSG

[1] = system: BiP and CHOP expression in A498 and ACHN cells; assay: Western blot for UPR markers BiP and CHOP; format: cell-based; conditions: EC50 dose; both cell lines; blocked with concomitant OA treatment
Procedure: (§1) Protein extraction and western blot analysis was performed as previously described (Copland J A, Marlow L A, Kurakata S, et al. Novel high-affinity PPARgamma agonist alone and in combination with paclitaxel inhibits human anaplastic thyroid carcinoma tumor growth via p21WAF1/CIP1. Oncogene. Apr 13 2006; 25(16):2304-2317). Primary antibodies included SCD1 (Sigma-Aldrich, #HPA012107), BiP (Cell Signaling, #3183), CHOP (Cell Signaling, #2895), sXBP1(Santa Cruz Biotechnology, #sc-7160), PARP(Cell Signaling, #9542), and β-actin (Sigma-Aldrich, #A5441).
(§2) Activating transcription factor 6 (ATF6) is a key regulator of the unfolded protein response (UPR) that recognizes unfolded protein response elements (UPRE) in the promoter regions of several key mediators of the ER stress response, initiating their transcription (Wang Y, Shen J, Arenzana N, Tirasophon W, Kaufman R J, Prywes R. Activation of ATF6 and an ATF6 DNA binding site by the endoplasmic reticulum stress response. J Biol Chem. Sep. 1, 2000; 275(35):27013-27020). A498 and ACHN transfected with an ATF6-UPRE luciferase reporter were treated with the EC50 doses of ChemBL375265, SSI-1, SSI-4, SSI-3, and SSI-2 with or without OA supplementation were evaluated in order to determine whether the identified compounds could recapitulate activation of the UPR. […] Upregulation of the UPR markers BiP (heat shock 70 kDa protein, GRP78) and CHOP (damage inducible transcript 3, DDIT3) was evaluated by Western blot in A498 and ACHN cells treated with the EC50 doses of ChemBL375265, SSI-1, SSI-4, SSI-3, and SSI-2 with or without OA supplementation.

[2] = system: A498, ACHN, and Caki1 cell lines; assay: Oleic acid (OA) rescue assay of cell proliferation in ccRCC cells; format: cell-based; conditions: EC50 dose of compound with OA (5 μg/μL); all three cell lines
Procedure: (§3) Cells were seeded at 5,000 cells/well in clear-bottom 96-well plates in triplicate in Maintenance Media. Drug treatment was applied at a concentration of 1:1000 in reduced serum (3%) Maintenance Media. After 72 hours, cells were washed with PBS, and stored at −80° C. prior to analysis using CyQuant® Proliferation Analysis Kit (Invitrogen) as per manufacturers' protocol for relative fluorescence units. Alternatively, cells were plated 2×10^5/well in 12-well plates (Midwest Scientific) in triplicate prior to drug treatment. After 120 hour treatment, cell number was established using a Coulter Particle Counter (Beckman). Or, cells were plated (0.5 or 1×10^5/well) in 24-well plates (Midwest Scientific), 3×. After 72 hour treatment, cell number established using Coulter Particle Counter (Beckman). Oleic acid-albumin (Sigma Aldrich) was added to media at 5 μM, and was applied adjuvant to drug treatment. Drug stocks were prepared in DMSO (Sigma) at 1000×. EC50 dosing per cell line was calculated using CalcuSyn® analytical software.
A498, ACHN, and Caki1 cell lines were treated with the EC50 dose of each MF-438, ChemBL375265, SSI-1, SSI-4, SSI-3, and SSI-2 with or without concomitant application of OA (5 μg/μL). […] Representative images of A498 cell morphology and density treated with each compound +/−OA are shown in (FIG. 2B).

[3] = system: ATF6-UPRE luciferase reporter in A498 and ACHN cells; assay: ATF6-UPRE luciferase reporter assay; format: cell-based; conditions: EC50 dose
Procedure: A498 and ACHN cells were transiently transfected with p5×ATF6-GL3 UPR luciferase reporter (Addgene plasmid#11976) and pRL-CMV-renilla (Promega) using Lipofectamine 2000 (Invitrogen). Cells were treated as indicated for 24H, prior to collection and analysis using Promega Dual Luciferase assay kit per manufacturer's specifications. Luciferase activity was measured using Veritas Luminometer (Promega); and results are reported as relative luminescence.
as §2

[4] = system: HK2, a transformed renal epithelial cell line; assay: High-throughput proliferative screen, non-cancerous cells; format: cell-based
Procedure: as §3
In order to identify potential SCD1 inhibitors, a high-throughput proliferative-based screening method was used, with four ccRCC cell lines including A498, ACHN, Caki1, and Caki2. The SCD1 inhibitor MF-438 was included as a positive control. Known compounds ChemBL375265 (Liu G, Lynch J K, Freeman J, et al. Discovery of potent, selective, orally bioavailable stearoyl-CoA desaturase 1 inhibitors. Journal of medicinal chemistry. Jun. 28, 2007; 50(13): 3086-3100) (SetA.100) and SAR707 (Voss M D, Zoller G, Matter H, et al. Discovery and pharmacological characterization of SAR707 as novel and selective small molecule inhibitor of stearoyl-CoA desaturase (SCD1). European journal of pharmacology. May 5, 2013; 707(1-3): 140-146) (TC03.100) were included as single-blinded positive controls, and are indicated with an asterisk (*). […]

kidney cancer cells = assay: Combination with mTor inhibitor temsirolimus, cell proliferation; format: cell-based; conditions: different concentrations with 0, 0.1, 1, and 10 nM temsirolimus
ATC cells = assay: Proliferative dose response of thyroid cells; format: cell-based; conditions: THJ29T, THJ16T, and KTC2; 72H
Procedure: as §3
The efficacy of pharmacologic inhibition of this enzyme on tumor cell proliferation after a 72H treatment was determined, using A939572-a commercially available small molecule SCD1 inhibitor (Xin Z, Zhao H, Serby M D, Liu B, Liu M, Szczepankiewicz B G, Nelson L T, Smith H T, Suhar T S, Janis R S, Cao N, Camp H S, Collins C A, Sham H L, Surowy T K, Liu G. Discovery of piperidine-aryl urea-based stearoyl-CoA desaturase 1 inhibitors. Bioorg Med Chem Lett. 2008; 18(15):4298-302). […] Despite conspicuous SCD1 expression in 4 of the 5 FTC cells tested, no response to A939572 was observed (FIG. 10D).
THJ29T, THJ16T, and KTC2 were treated with carfilzomib (FIG. 12A) or bortezomib for 72H in order to establish EC50 values. […] Anti-proliferative drug synergy was evaluated in THJ29T and THJ16T treated with either A939572 or MF-438 in combination with either bortezomib or carfilzomib for 48H. Synergy was assessed using CalcuSyn analytical software, which determines the combination index (CI) based on the Chou-Talalay method where CI values >1 represent an antagonistic effect and values <1 represent synergy, and lower values signify enhanced synergy (Chou T C, Talalay P. Analysis of Combined Drug Effects—a New Look at a Very Old Problem. Trends in Pharmacological Sciences. 1983; 4(11):450-4).

[5] = system: PARP cleavage and CHOP expression in THJ29T and THJ16T; assay: Western blot for PARP cleavage and CHOP expression, combinatorial therapy; format: cell-based; conditions: EC50 doses, 48H
Procedure: as §1
THJ29T and THJ16T treated for 48H with EC50 doses of either A939572 or MF-438 in combination with either carfilzomib or bortezomib were probed for PARP cleavage and CHOP expression, both markers indicative of apoptosis (FIGS. 14A-B, 15A-B). […] Cell death was additionally examined via flow cytometry using propidium iodide staining. THJ29T and THJ16T were treated for 48H with EC50 doses of either A939572 or MF-438 in combination with either carfilzomib or bortezomib prior to staining and analysis.

[6] = system: THJ16T ATC cell xenograft; assay: THJ16T xenograft model; format: in vivo, female athymic nu/nu mice
Procedure: Formalin-fixed, paraffin-embedded subject tissues were mounted on slides, blocked with Diluent (DakoCytomation) for 30 min, and then probed for SCD (Sigma-Aldrich, #HPA012107). IHC scoring was performed as previously described (von Roemeling C A, Marlow L A, Wei J J, et al. Stearoyl-CoA desaturase 1 is a novel molecular therapeutic target for clear cell renal cell carcinoma. Clin Cancer Res. May 1 2013; 19(9):2368-2380). Cases where insufficient tumor tissue presented were excluded. 20× images were obtained using Scanscope XT and Imagescope software.
1×10^6 THJ16T ATC cells were subcutaneously injected in female athymic nu/nu mice (Harlan Laboratories). Treatment was initiated once tumor volumes reached 50-100 mm^3. MF-438 was suspended in 0.5% carboxymethyl-cellulose containing strawberry drink flavoring(0.1 g/mL) in sterilized H2O at 25 mg/kg in a 100 μl dose, and administered via oral gavage once daily. Carfilzomib was solubilized in DMSO (4% of FC), suspended in 100% corn oil at 4 mg/kg per 50 uL dose and administered via intraperitoneal injection twice weekly on consecutive days. Tumor volume(0.5236[L*W*H]) and body weight were measured 2×/week. N=10 mice/group.
MF-438 was tested in combination with carfilzomib in vivo in a THJ16T xenograft model. […] J Clin Endocrinol Metab. 2010; 95(12):5338-47). […] Saline was administered as necessary. These adverse events resolved 24-48 hours after the second administration of carfilzomib. […] However, no other significant adverse events were observed. […] IHC analysis of tumors resected from each treatment group was performed.

[7] = 24H, both cell lines A498 and ACHN, completely blocked with OA

CNC(=O)c1ccc(N2CCC(Oc3ccccc3Cl)CC2)nn1 [ChemBL375265]
IC50 (SCD1): 400 nM
BiP and CHOP expression [1]: strongly induced both BiP and CHOP expression
rescue of cell proliferation with OA [2]: Near total rescue of cell proliferation
luciferase activity [3, 7]: significant upregulation of luciferase activity

CNC(=O)c1ccccc1OCC(=O)N1CCN(C(=O)c2ccccc2C(F)(F)F)CC1 [SSI-1, N-Methyl-2-(2-oxo-2-{4-[2-(trifluoromethyl)benzoyl]piperazin-1-yl}ethoxy)benzamide]
BiP and CHOP expression [1]: strongly induced both BiP and CHOP expression
rescue of cell proliferation with OA [2]: Near total rescue of cell proliferation
luciferase activity [3, 7]: significant upregulation of luciferase activity

O=C(Nc1ccc(OCc2ccccc2)nc1)N1CCN(C(=O)c2ccccc2C(F)(F)F)CC1 [SSI-2, 2-(benzyloxy)-5-{[hydroxy({4-[2-(trifluoromethyl)benzoyl]piperazin-1-yl})methyl]amino}-1,2-dihydropyridin-2-ylium-1-ide]
BiP and CHOP expression [1]: strongly induced both BiP and CHOP expression
reduction in cell proliferation [4]: approximately 20%
rescue of cell proliferation with OA [2]: Near total rescue of cell proliferation
luciferase activity [3, 7]: significant upregulation of luciferase activity
kidney cancer cell proliferation (kidney cancer cells): reduced kidney cancer cell proliferation

O=C(NCc1ccnc(OCc2ccccc2)c1)N1CCN(C(=O)c2ccccc2C(F)(F)F)CC1 [SSI-3]
BiP and CHOP expression [1]: strongly induced both BiP and CHOP expression
rescue of cell proliferation with OA [2]: Near total rescue of cell proliferation
luciferase activity ([3]; ACHN cells): induced reversible luciferase activity

CC(C)C[C@H](NC(=O)[C@H](Cc1ccccc1)NC(=O)c1cnccn1)B(O)O [bortezomib]
EC50 (ATC cells): low nanomolar dose range

CC(C)C[C@H](NC(=O)[C@H](CCc1ccccc1)NC(=O)CN1CCOCC1)C(=O)N[C@@H](Cc1ccccc1)C(=O)N[C@@H](CC(C)C)C(=O)[C@@]1(C)CO1 [carfilzomib]
EC50 (ATC cells): low nanomolar dose range
PARP cleavage as compared to DMSO control [5]: significant PARP cleavage
reduction in mean tumor burden as compared to the placebo control ([6]; MF-438 25 mg/kg oral once daily, carfilzomib 4 mg/kg i.p. twice weekly): 21%
tumor response / mean tumor volume course ([6]; THJ16T xenograft): temporarily plateau
adverse events ([6]; mice bearing THJ16T xenograft): Dehydration and acute inflammation
survivin expression (IHC) ([6]; mouse, in vivo): induced survivin expression
CD31 (IHC), tumor vascularization ([6]; versus placebo control): trend toward decreased CD31
ki67 staining (IHC of resected tumors) ([6]; versus placebo control): trend of decreased ki67 staining
cleaved caspase-3 (IHC) ([6]; versus placebo control, only the combination group achieved statistical significance): increased cleaved caspase-3
HERPUD1 (IHC), marker for ER stress ([6]; versus placebo control, statistically significant combinatorial values): Increased HERPUD1
